Experimental data published in patent US20110280940A1, “Di-Vanilloyl And Tri-Vanilloyl Derivatives For Use In Anti-Cancer Therapy” (priority 2008, published 2011).

Legend:
U373-MG glioma cell line = assay: Cellular imaging (quantitative videomicroscopy), global growth ratio, U373; format: cell-based; conditions: Homo sapiens, 72 h, read-out: Global Grow Ratio Treated/Ct (GGR T/Ct) determined by Video Quantitative microscopy, U373
Aurora A kinase = biological target: T1, Aurora A kinase (Homo sapiens, UniProt O14965); assay: Radiometric protein kinase assay (33 PanQinase), Aurora A; format: biochemical; conditions: for IC50: dose-response 0-100 μM, n=3, read-out: IC50: Concentration of drug needed in order to inhibit kinase activity by 50%, AurA; for inhibition at 57 µM: read-out: inhibition of Aurora A activity
T1 construct: made in house
T1 sequence (O14965 1-403): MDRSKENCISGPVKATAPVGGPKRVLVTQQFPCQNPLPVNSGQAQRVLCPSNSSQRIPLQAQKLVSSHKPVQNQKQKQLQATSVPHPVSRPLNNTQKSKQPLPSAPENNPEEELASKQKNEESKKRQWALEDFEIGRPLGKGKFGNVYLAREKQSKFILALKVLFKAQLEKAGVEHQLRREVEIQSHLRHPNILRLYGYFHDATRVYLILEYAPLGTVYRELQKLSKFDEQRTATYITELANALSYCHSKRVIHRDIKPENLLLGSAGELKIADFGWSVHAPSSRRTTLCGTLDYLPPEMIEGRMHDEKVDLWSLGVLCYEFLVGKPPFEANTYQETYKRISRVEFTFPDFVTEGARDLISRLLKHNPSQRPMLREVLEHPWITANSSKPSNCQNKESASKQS
Description: Note that at a concentration of 20 μM of the DLT compounds, the activity of the three Aurora kinases is reduced by approximately 40-50%, whereas at concentrations of 50 μM, i.e. the concentration used in the anti-proliferation assays of example 2B, the activity of said kinases is reduced by 60-75%.
The kinase inhibition profile of DLT95-Cl at 20 μM was determined using 255 protein kinases. Residual activity values were measured by testing each compound at one concentration in duplicate in each kinase assay. A radiometric protein kinase assay (33 PanQinase®Activity Assay) was used for measuring the kinase activity of 250 protein kinases. All kinase assays were performed in 96-well flashPlates™ from Perkin Elmer (Boston, Mass., USA) in a 50 μl reaction volume. The reaction cocktail was pipetted in 4 steps in the following order: • 10 μl of non-radioactive ATP solution (in H2O) • 25 μl of assay buffer/[γ-33P]-ATP mixture • 5 μl of test sample in 10% DMSO • 10 μl of enzyme/substrate mixture
The assay for all enzymes contained 60 mM HEPES-NaOH, pH 7.5, 3 mM MgCl2, 3 mM MnCl2, 3 μM Na-orthovanadate, 1.2 mM DTT, 50 μg/ml PEG20000, 1 μM ATP/[γ-33P]-ATP (approx. […] per well), protein kinase, and substrate. All PKC assays (except the PKC-mu and the PKC-nu assay) additionally contained 1 mM CaCl2, 4 mM EDTA, 5 μg/ml Phosphatidylserine and 1 μg/ml 1,2-Dioleyl-glycerol. The MYLK2, CAMK1D, CAMK2A, CAMK2B, CAMK2D, CAMK4, CAMKK2, DAPK2 and EEF2K assays additionally contained 1 μg/ml Calmodulin and 0.5 mM CaCl2. The PRKG1 and PRKG2 assays additionally contained 1 μM cGMP.
The protein kinases were expressed either in Sf9 insect cells or in E. coli as recombinant GST-fusion proteins or as His-tagged proteins. All kinases were produced from human cDNAs. Kinases were purified by affinity chromatography using either GSH-agarose (Sigma) or Ni-NTH-agarose (Qiagen). The purity of the protein kinases was examined by SDS-PAGE/coomassie staining. The identity of the protein kinases was checked by mass spectroscopy.
The reaction cocktails were incubated at 30° C. for 60 minutes. The reaction was stopped with 50 μl of 2% (v/v) H3PO4, plates were aspirated and washed two times with 200 μl 0.9% (w/v) NaCl. All assays were performed with a BeckmanCoulter Biomek 2000/SL robotic system.
Incorporation of ^33Pi (counting of “cpm”) was determined with a microplate scintillation counter (Microbeta, Wallac).
For each kinase, the median value of the cpm of three wells with complete reaction cocktails, but without kinase, was defined as “low control” […]. This value reflects unspecific binding of radioactivity to the plate in the absence of protein kinase but in the presence of the substrate. Additionally, for each kinase the median value of the cpm of three other wells with the complete reaction cocktail, but without any compound, was taken as the “high control”, i.e. full activity in the absence of any inhibitor […]. The difference between high and low control of was taken as 100% activity for each kinase. As part of the data evaluation the low control value of each kinase was subtracted from the high control value as well as from their corresponding “compound values”. The residual activity (in %) for each compound well was calculated by using the following formula: Res. Activity (%)=100×[(cpm of compound−low control)/(high control−low control)]

SMILES	activity at 31 µM (U373-MG glioma cell line) [%]	IC50 (Aurora A kinase) [µM]	inhibition at 57 µM (Aurora A kinase) [%]	activity at 37 µM (U373-MG glioma cell line) [%]
O=C(OCc1cc(COC(=O)c2ccc(O)c(Cl)c2)cc(COC(=O)c2ccc(O)c(Cl)c2)c1)c1ccc(O)c(Cl)c1 [DLT95-Cl, [3,5-bis[(4-hydroxy-3-chloro-benzoyl)oxymethyl]phenyl]methyl 4-hydroxy-3-chloro-benzoate]	50	1.7	≥ 50	
COc1cc(C(=O)O)ccc1O [vanillic acid, reference compound]		> 100		
O=C(OCc1cc(COC(=O)c2ccc(O)c(F)c2)cc(COC(=O)c2ccc(O)c(F)c2)c1)c1ccc(O)c(F)c1 [DLT95-F, [3,5-bis[(4-hydroxy-3-fluoro-benzoyl)oxymethyl]phenyl]methyl 4-hydroxy-3-fluoro-benzoate]		3.2	≥ 50	40
COc1cc(C(=O)OCc2cc(COC(=O)c3ccc(O)c(OC)c3)cc(COC(=O)c3ccc(O)c(OC)c3)c2)ccc1O [DLT95, [3,5-bis[(4-hydroxy-3-methoxy-benzoyl)oxymethyl]phenyl]methyl 4-hydroxy-3-methoxy-benzoate]		9.1		
